The target of this test is Protein Tat (Human immunodeficiency virus type 1 group M subtype B (isolate HXB2)) (UniProt P04608). Nature of the test: HIV-1 Tat–TAR interaction blockers – biochemical, fluorescence polarization, FAM-labeled TAR RNA, counter-screen for Vif-APOBEC3G degradation inhibitor project, dose response (AID 1117361). The settings on record: Tat-TAR RNA binding.
Protein Tat (Human immunodeficiency virus type 1 group M subtype B (isolate HXB2)), sequence (P04608 whole entry, looked up): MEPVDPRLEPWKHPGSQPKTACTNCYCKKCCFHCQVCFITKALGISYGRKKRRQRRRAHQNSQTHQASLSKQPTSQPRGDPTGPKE
`CCOC(=O)COc1nc(-c2ccco2)cc(-c2ccco2)c1C#N`: the IC50 is 8.34 µM.
As for `NC(=O)c1cc(N)ccc1N1CCCC1`, the figure is 2.17 µM; as for `O=S(=O)(Nc1nccs1)c1ccc(Nc2nnc(-c3ccccc3)c3ccccc23)cc1`, 47.7 µM.
As for `O=c1oc2c3c4c(cc2s1)CCCN4CCC3`, the figure is 26 µM.
As to `O=C1C(=Cc2ccco2)CCCC1=Cc1ccco1`, the IC50 is 63.9 µM.
Turning to `CC1CCCN(Cc2c(O)ccc3c2O/C(=C\c2ccco2)C3=O)C1` (stereo not drawn), the IC50 was 5.6 µM.
As for `Nc1ccc2c(O)cc(S(=O)(=O)O)cc2c1`, the figure is 48 µM.
Under `COC(=O)c1ccc(COc2ccccc2/C=C(\C#N)C(=O)Nc2c(C)cc(C)cc2C)cc1` stands 46.2 µM.
Turning to `Oc1ccc(N=Cc2sc3ccccc3c2Cl)cc1`, the IC50 was 62.3 µM.
As for `CN(C)c1ccc(O)c2c1CC1CC3[C@@H](N(C)C)C(=O)C(C(N)=O)=C(O)[C@]3(O)C(=O)C1=C2O` (stereo partly drawn), the figure is 6.14 µM; as for `CCCn1c(=N)n(CC(O)c2ccco2)c2ccccc21` (stereo not drawn), 78.2 µM.
As for `COc1cccc2c1NC(C(=O)O)C1CC=CC21` (stereo not drawn), the figure is 1.87 µM; as for `COc1ccc(/C=C(\NC(=O)c2ccc(OCC(C)C)cc2)C(=O)OCc2ccco2)cc1`, 61.5 µM; as for `CCOc1ccccc1C(O)C1=CC(=O)c2ccccc2C1=O` (stereo not drawn), 77.7 µM.
For `COc1ccc2nc3ccccc3nc2c1N`, the IC50 is 81.6 µM.
As for `Cc1cc(C)c(C(=O)/C=C/c2ccco2)c(=O)[nH]1`, the figure is 12.1 µM.
Regarding `O=C(CCN1C(=O)/C(=C/c2cccs2)SC1=S)NC1=NCCS1`, the IC50 is 46 µM.
As for `CCCCN1C2CCCC1CC(NC(=O)c1ccc(OC)c(OC)c1)C2` (stereo not drawn), the figure is 78.3 µM; as for `CC(=C\c1ccco1)/C=C1/SC(=S)N(CC(=O)O)C1=O`, 8.8 µM.
With `O=C1N=C(N2CCN(c3ccccc3)CC2)S/C1=C\c1ccco1`, the IC50 was 11.9 µM.
As for `C/C(=C\C(=O)c1ccc(C)cc1)Nc1cccc(O)c1`, the figure is 10.4 µM.
As to `O=C(NCC1CCCO1)c1cc(-c2ccco2)nc2ccccc12` (stereo not drawn), the IC50 is 49.5 µM.
`COC(=O)CCCC(=O)Nc1c(F)c(F)c(F)c(F)c1F`: the IC50 is 78.2 µM.
Under `COc1ccc(NC(=S)NCCc2ccccc2OC)c(OC)c1` stands 13.7 µM.
For `O=C1CC(=O)N(Cc2ccco2)C(=S)N1`, the IC50 was 1.56 µM.
With `Cc1cc(C)cc(Nc2ccc(C(=O)O)cc2N)c1`, the IC50 was 47.1 µM.
As to `COC(=O)c1ccc(COc2ccc(/C=N/Nc3cccc(C(=O)O)c3)cc2)cc1`, the IC50 is 62.4 µM.
On to `O=C(CC1C(=O)NCCN1Cc1ccc(F)cc1)NCCN1CCCc2ccccc21` (stereo not drawn), for which the IC50 was 22.1 µM.
As to `COc1cc(/C=C/C=C2/CC/C(=C/C=C/c3ccc(O)c(OC)c3)C2=O)ccc1O`, the IC50 is 44.8 µM.
As to `CCN(CC)C(=O)c1ccc2c(c1)C1C(Cl)C(Sc3ccccc3[N+](=O)[O-])CC1C(C(=O)O)N2` (stereo not drawn), the IC50 is 5.54 µM.
Under `O=C(/C=C/c1cccs1)Nc1ccc(Br)cn1` stands 31.4 µM; under `O=C(CCCN1C(=O)/C(=C\c2ccco2)SC1=S)Nc1cccc2ccccc12`, 7.92 µM.
In the case of `CCOC(=O)Cn1nnnc1C(C(C)C)N(Cc1cc2c(C)cc(C)cc2[nH]c1=O)C1CCCC1` (stereo not drawn), the IC50 is 67.6 µM.
As for `COC(=O)c1ccccc1NC(=O)CCS(=O)(=O)c1ccc(Br)cc1`, the IC50 is 18.4 µM.
As for `O=C(NC1CCCC1)c1ccc2nc(-c3ccco3)c(-c3ccco3)nc2c1`, the figure is 2.08 µM; as for `O=C(Cc1cccs1)N/N=C/C=C/c1ccco1`, 8.22 µM.
Turning to `COc1ccc(O)c(C(=O)C2c3ccccc3C(=O)N2c2ccc(C)cc2)c1` (stereo not drawn), the half-maximal inhibitory concentration (IC50) was 0.303 µM.
On to `CC(=O)NN1C(=O)/C(=C\c2ccc(Br)o2)SC1=S`, for which the IC50 is 4.82 µM.
For `Cc1cccc(NC(=S)NC(=O)/C=C/c2ccco2)c1`, the IC50 was 20.2 µM.
As to `Cc1n[nH]c(=S)n(NC(=O)/C=C/C(=O)Nn2c(=S)[nH]nc(C)c2=O)c1=O`, the IC50 is 18.2 µM.
In the case of `O=[N+]([O-])c1cc(Br)c(O)c(C=Nc2ccc(N3CCOCC3)cc2)c1`, the IC50 is 77.5 µM.
As for `COC(=O)C1=C(C)N(Cc2ccccc2)C(=O)/C1=C\c1ccco1`, the figure is 79.7 µM; as for `COc1ccc(NC(=O)c2cccc(S(=O)(=O)Nc3ccc(Br)cc3)c2)cn1`, 2.15 µM; as for `O=C(NCCO)Nc1ccc2nc(-c3ccco3)c(-c3ccco3)nc2c1`, 1.76 µM.
Under `CC(/C=N/n1c(-c2ccncc2)n[nH]c1=S)=C\c1ccco1` stands 8.22 µM; under `CC(=O)Nc1ccc(S(=O)(=O)Nc2nc3ccccc3nc2Nc2ccc(N)cc2)cc1`, 43.3 µM; under `O=C(Nc1ccc2nc(-c3ccco3)c(-c3ccco3)nc2c1)N1CCCCCC1`, 3.56 µM.
On to `Cc1ccc(C(CC(=O)NCc2ccco2)c2ccccc2)c(O)c1` (stereo not drawn), for which the IC50 is 30 µM.
With `Oc1ccc(/C=N/NC2=NCCCCC2)c(O)c1`, the IC50 was 25.1 µM.
As for `CC1C/C(=C/c2ccco2)C(=O)/C(=C/c2ccco2)C1` (stereo not drawn), the figure is 3.92 µM; as for `COc1cc(CC(=O)OCC(=O)Nc2cccc([N+](=O)[O-])c2)cc(OC)c1OC`, 26.6 µM; as for `CC1=C(C#N)C(=O)N(C2CCS(=O)(=O)C2)C(=O)/C1=C\c1ccco1` (stereo not drawn), 2.88 µM.
As for `O=C(CN1CCN(S(=O)(=O)c2ccc(Cl)s2)CC1)NCc1ccc(Cl)cc1`, the figure is 23.2 µM; as for `COC(=O)C1=C(N)OC2=C(C(=O)CCC2)C1c1cccs1` (stereo not drawn), 52.2 µM; as for `Nc1cc(N)c(OCC(F)(F)F)cc1OCC(F)(F)F`, 11.4 µM.
With `O=S(=O)(c1ccc(OCC(O)CN2CCC(Cc3ccccc3)CC2)cc1)N1CCOCC1` (stereo not drawn), the IC50 was 10.3 µM.
For the compound `CCC(=O)NC1=C(Cl)C(=O)C(NC(=O)CC)=C(Cl)C1=O`, the concentration for half-maximal inhibition (IC50) was 79.8 µM.
Under `CCc1ccccc1NC(=O)c1cccc(NC(=O)/C=C/c2ccco2)c1` stands 26.6 µM; under `O=[N+]([O-])c1ccc(N/N=C/c2ccc(O)c(O)c2O)c(S(=O)(=O)N2CCOCC2)c1`, 34 µM; under `CCC(=Nc1ccc(N)cc1)C1=C(O)C(C(=O)OC)C(C)(C)CC1=O` (stereo not drawn), 5.48 µM.
`COc1cc(OC)c2c(c1O)OC(c1ccccc1)CC2=O` (stereo not drawn): the IC50 was 65.4 µM.
For `O=C1NC(c2cccc(Br)c2)=N/C1=C\c1ccco1`, the IC50 was 9.2 µM.
Take `COC(=O)CSc1nnc(CNC(=O)Cc2ccccc2)n1C`: the IC50 was 1.43 µM.
Under `CCOC(=O)C1CCN(C(c2cccs2)c2sc3nc(C)nn3c2O)CC1` (stereo not drawn) stands 1.96 µM; under `O=c1cc(-c2ccccc2Cl)c2c([nH]1)CCC2`, 18.8 µM.
For the compound `O=C(Nc1ccccc1)c1ccc2nc(-c3ccco3)c(-c3ccco3)nc2c1`, the IC50 was 7.63 µM.
Under `Cc1ccc(-n2c(-c3cc(-c4ccco4)[nH]n3)n[nH]c2=S)c(Br)c1` stands 6.09 µM.
Under `O=C(NCCc1c[nH]c2ccccc12)c1ccc(S(=O)(=O)NCc2ccco2)cc1` stands 48.3 µM.
`Nc1ccc(N(CCO)CCO)cc1`: the IC50 was 9.62 µM.
On to `O=C(O)c1cccc(-n2cccc2/C=C/[N+](=O)[O-])c1`, for which the IC50 was 5.57 µM.
As for `COc1cc(-c2cccs2)cc(=O)c2c(C)oc(C)c12`, the figure is 22.7 µM; as for `COc1cccc(NC(=O)CSc2nnc(-c3ccco3)c(-c3ccco3)n2)c1`, 69.3 µM.
As for `Cn1c(N)c(C(=O)COC(=O)C2CCCCC2)c(=O)n(C)c1=O`, the IC50 is 76.2 µM.
For `Cc1c(N=C2C=C(Br)C(=O)C(Br)=C2)c(=O)n(-c2ccccc2)n1C`, the IC50 is 11 µM.
As to `CSc1ccc(/C=N/Nc2cccc(C(=O)O)c2)cc1`, the IC50 is 5.81 µM.
As for `CCOc1cc(N2CCOCC2)c(OCC)cc1NC(=O)CSc1ncn[nH]1`, the IC50 was 35.7 µM.
As for `O=C(Nc1ccc(Br)cn1)c1coc(=O)c(Br)c1`, the figure is 79.5 µM; as for `CCOc1cccc(=O)c2c(C)n(C)c(C)c12`, 55.2 µM.
As for `CN(C)N1C(N)=C(C#N)C(c2cccnc2)C2=C1CCCC2=O` (stereo not drawn), the figure is 15.3 µM.
As for `NCCc1c[nH]c2ccccc12`, the IC50 is 11.8 µM.
For the compound `CCCCC(=O)NC(=S)Nc1cc(C(=O)O)ccc1Cl`, the IC50 was 51.2 µM.
As for `Cc1ccc(S(=O)(=O)N2CCC(C(=O)Nc3nnc(-c4ccco4)s3)CC2)cc1`, the IC50 was 51.1 µM.
Under `CC1(c2ccc3noc(-c4ccccc4)c3c2)OCCO1` stands 2.87 µM.
As for `CC(C)n1c(=NC(=O)c2ccco2)c(C#N)cc2c(=O)n3ccccc3cc21`, the figure is 95.9 µM.
As for `O=C(CSc1nc(-c2ccco2)cc(C(F)(F)F)n1)N1CCc2ccccc2C1`, the figure is 35.2 µM.
Turning to `C=CCN1C(=O)/C(=C\c2ccco2)C(C(=O)OC)=C1C`, the IC50 is 45.9 µM.
As for `CN(C)c1ccc(N=C/C=C2/N(C)c3ccccc3C2(C)C)cc1`, the figure is 64.4 µM.
On to `O=C1/C(=C\c2ccco2)SC(=S)N1c1ccccc1`, for which the IC50 was 9.64 µM.
As for `Cc1ccc(Cn2c(=S)[nH]c3ccc(N4CCOCC4)cc3c2=O)o1`, the figure is 3.98 µM.
Take `CC(C)N1C(=O)CC(Nc2ccc(N3CCOCC3)cc2)C1=O` (stereo not drawn): the IC50 was 16 µM.
As for `CCc1nc2oc3cc(OC)ccc3c(=O)c2c(=O)n1Cc1ccco1`, the figure is 24 µM; as for `Cn1cccc1/C=C1/C(=O)NC(=O)N(Cc2ccccc2)C1=O`, 67 µM.
Regarding `Cc1ccn2cc(-c3nonc3C)cc2c1`, the IC50 was 21.4 µM.
Consider `CN(C)c1ccc2cc(S(=O)(=O)O)cc(O)c2c1`, for which the IC50 was 90 µM.
Regarding `Cc1ccc2cc(C(c3nnnn3Cc3ccccc3)N3CCc4ccccc43)c(=O)[nH]c2c1` (stereo not drawn), the IC50 was 46.4 µM.
Take `C/C(=N\Nc1ccc(Cl)c(C(=O)O)c1)c1ccc[nH]1`: the IC50 is 21.4 µM.
Regarding `CCOC(=O)c1cc2cc(F)ccc2nc1C`, the IC50 is 6.24 µM.
Under `O=C1C=Cc2ccccc2C1=O` stands 30.5 µM; under `Cc1cc(-c2n[nH]c(=S)n2/N=C/C=C/c2ccco2)n[nH]1`, 18.6 µM; under `CCOc1ccc(N(CC(=O)NC(C)(C)C)S(=O)(=O)c2c(C)noc2C)cc1`, 5.37 µM.
With `COC(=O)c1ccc(C(=O)OC)c(NC(=O)Cc2cccs2)c1`, the IC50 was 64.8 µM.
As for `Oc1ccc(NCc2ccccc2OCc2ccccc2)cc1`, the figure is 51.6 µM.
Take `O=C(Nc1ccccc1F)c1coc(=O)c(Br)c1`: the IC50 was 15 µM.

Values taken from PubChem BioAssay AID1117361 (Southern Research Institute, 2015).
